Reference: patent US7294710B2 (Japan Science and Technology Agency, priority 1999, dated 2007)

T1: nematode high-affinity choline transporter cho-1 (C48D1.3) (Caenorhabditis elegans, UniProt O02228)
T1 construct: injecting each cRNA prepared from candidate full-length cDNAs; expressed in transfected cells; host or cells: Xenopus oocytes (stage V to VI) microinjected with capped cRNA transcribed from modified pSPUTK vector
T1 sequence (O02228 1-576): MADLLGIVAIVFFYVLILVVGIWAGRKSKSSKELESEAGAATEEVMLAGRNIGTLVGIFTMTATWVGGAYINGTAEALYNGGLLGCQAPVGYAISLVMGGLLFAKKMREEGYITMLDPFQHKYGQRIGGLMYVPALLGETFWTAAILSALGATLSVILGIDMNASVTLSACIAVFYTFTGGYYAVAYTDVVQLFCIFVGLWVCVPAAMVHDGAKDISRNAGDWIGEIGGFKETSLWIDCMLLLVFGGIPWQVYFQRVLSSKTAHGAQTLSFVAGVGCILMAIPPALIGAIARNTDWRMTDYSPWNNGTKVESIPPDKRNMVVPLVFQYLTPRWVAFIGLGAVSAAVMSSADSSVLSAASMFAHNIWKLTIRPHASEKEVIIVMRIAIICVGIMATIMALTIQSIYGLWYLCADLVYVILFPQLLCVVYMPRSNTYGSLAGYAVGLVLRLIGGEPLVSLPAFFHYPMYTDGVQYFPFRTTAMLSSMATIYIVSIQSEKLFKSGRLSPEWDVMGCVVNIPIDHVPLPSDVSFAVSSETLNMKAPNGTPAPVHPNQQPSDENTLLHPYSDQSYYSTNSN

T2: rat CHT1 (high-affinity choline transporter) (Rattus norvegicus, UniProt Q9JMD7)
T2 construct: expressed in transfected cells; host or cells: Xenopus oocytes microinjected with CHT1 cRNA (clone in pSPUTK vector)
T2 sequence (Q9JMD7 1-580): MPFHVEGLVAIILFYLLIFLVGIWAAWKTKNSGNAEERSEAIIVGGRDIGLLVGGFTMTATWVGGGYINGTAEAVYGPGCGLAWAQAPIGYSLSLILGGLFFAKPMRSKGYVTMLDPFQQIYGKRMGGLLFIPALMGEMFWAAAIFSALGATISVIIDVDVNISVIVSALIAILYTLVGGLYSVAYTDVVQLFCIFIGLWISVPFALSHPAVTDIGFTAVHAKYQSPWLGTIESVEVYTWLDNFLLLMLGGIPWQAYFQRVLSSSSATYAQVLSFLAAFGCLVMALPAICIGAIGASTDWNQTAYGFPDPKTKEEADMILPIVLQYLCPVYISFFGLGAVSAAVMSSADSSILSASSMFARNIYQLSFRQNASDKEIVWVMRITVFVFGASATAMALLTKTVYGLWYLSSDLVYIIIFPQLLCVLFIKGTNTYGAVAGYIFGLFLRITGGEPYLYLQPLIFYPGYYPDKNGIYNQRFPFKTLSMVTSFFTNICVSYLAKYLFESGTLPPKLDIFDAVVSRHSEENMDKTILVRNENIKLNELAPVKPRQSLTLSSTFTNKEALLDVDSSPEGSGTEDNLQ

B1: rat CHT1 (high-affinity choline transporter) (Rattus norvegicus) (protein)
chain: T2 sequence (Q9JMD7 1-580)

Tests used:
[1] = target: T1, nematode high-affinity choline transporter cho-1 (C48D1.3); experiment: [3H] choline uptake of Xenopus oocytes injected with nematode cho-1 (C48D1.3) cRNA; assay type: cell-based, C. elegans
Experimental: (§1) In the presence of cap analog, cRNA was synthesized in vitro with SP6 or T7 RNA polymerase. 20 to 30 ng capped RNA was microinjected into oocytes (stage V to VI) of Xenopus. […] The oocytes completing uptake were solubilized with 10% SDS, and the amount of [^3H] was measured by a liquid scintillation counter.

[2] = target: T2, rat CHT1 (high-affinity choline transporter); experiment: [3H] choline uptake of Xenopus oocytes injected with CHT1 cRNA; assay type: cell-based
Experimental: as §1, with “Xenopus. The uptake was measured in basically same manner as described previously (Nature 360, 467-471, 1992).” for “Xenopus.”

[3] = test system: endogenous choline uptake of control oocytes; experiment: Choline uptake of control Xenopus oocytes injected with water; assay type: cell-based; details: 10 μM HC3, oocytes injected with water
Experimental: as §1, with “Xenopus. The uptake was measured in basically same manner as described previously (Nature 360, 467-471, 1992).” for “Xenopus.”

[4] = test system: high-affinity uptake of choline in brain synaptosomes; details: cited from earlier work
[5] = test system: low-affinity uptake of choline, distributed in every cells; details: read-out: Ki of HC3 for low-affinity uptake of choline, higher HC3 concentration; cited from earlier work
[6] = substrate: C[N+](C)(C)CCO; experiment: cells, lysate or membranes; details: other: Michaelis-Menten fit, water-injected uptake subtracted, n=3; pH 7.4

Molecule	Ki [1]	inhibition of cho-1 promoted choline uptake ([1]; 1 μM HC3, Xenopus oocytes)	Ki [2]	inhibition of choline uptake of CHT1 ([2]; 0.1 μM HC3)	inhibition of Na+-dependent choline uptake of CHT1 ([2]; CHT1 expressed in Xenopus oocytes, concentration not given)	inhibition of choline uptake in control [3]	inhibition of high-affinity uptake of choline ([4]; 1 μM HC3, brain synaptosomes of mammals)	Ki ([4]; read-out: Ki of HC3 for high-affinity uptake of choline, brain synaptosomes of mammals)	Ki [5]	Km [6]
C[N+]1(C)CCOC(O)(c2ccc(-c3ccc(C4(O)C[N+](C)(C)CCO4)cc3)cc2)C1 (stereo not shown) [HC3, hemicholinium-3]	50 nM	inhibited	2 to 3 nM	completely inhibited	completely inhibited	only slight inhibition	completely inhibited	10 to 100 nM	50000 nM	
B1										2.2 ± 0.2 µM
